The text below walks through data of US20050239152A1, “Continuous-flow enzyme assay” (Kiadis B.V., priority 2002, published 2005).

Assay [1] addresses T1, Cathepsin B (E.C. 3.4.22.1, from bovine spleen) (Bos taurus, UniProt P07688). Particulars: FI-CF system, FIG. 7; antipain compared with E64.
Description: The enzymatic assay was performed in a continuous-flow ESI-TOF-MS system where the enzyme cathepsin B and the substrate Z-FR-AMC were subsequently added to the carrier solution of a flow injection system simulating the effluent of an LC column. As a consequence, cathepsin B was continuously incubated with Z-FR-AMC, resulting in a continuous supply of converted substrate. The product was pumped into the mass spectrometer and monitored. Various compounds were injected into the continuous-flow system, incubated with the enzyme in a reaction coil and subsequently pumped into the mass spectrometer. […]
More in detail, samples were analyzed by two different continuous-flow (CF) systems, which both consisted of a homogeneous bioassay coupled to a Micromass (Wythenshawe, UK) Q-Tof micro mass spectrometer. […] The amount of formed product was determined by MS, which was equipped with a Micromass Z-spray electrospray ionization (ESI) source. […]
Carrier solution (20 μL/min) was mixed continuously with cathepsin B solution (10 μL/min) in reaction coil A for 40 sec, and carrier/cathepsin B solution with Z-FR-AMC solution (30 μL/min) in reaction coil B for 45 sec. The resulting flow (40 μL/min) coming out of reaction coil B was pumped into the mass spectrometer, where the amount of formed product was directly monitored by ESI-TOF-MS. […]
The target in assay [2] is T1, Cathepsin B (E.C. 3.4.22.1, from bovine spleen). Nature of the assay: LC-continuous-flow (LC-CF) ESI-TOF-MS cathepsin B assay, substrate Z-FR-AMC. Particulars: LC-CF system, FIG. 8; mixture injected, E64 40 μM, CA-074 90 μM.
Description: For the HPLC screening, solutions were prepared as described herein-above and filled in superloops. Used concentrations were 30 nM cathepsin B and 6 μM internal standard 1, and 50 μM Z-FR-AMC and 6 μM internal standard 2, for superloop 1 and superloop 2, respectively. Injected inhibitors: E64 and CA074, which were in mixture injected (E64: 40 μM; CA-074: 90 μM). […] Compounds injected via an autoinjector were separated by the LC-column, using a binary gradient system consisting of carrier solution and methanol. In order to reduce the amount of methanol that was necessary for separation, a makeup solution was added to the column effluent, resulting in a constant methanol concentration of 10%. Decreasing the concentration of methanol was necessary to prevent enzyme degradation. […] In the LC-CF system, both the enzyme solution and the substrate solution were delivered at a flow rate of 50 μL/min, resulting in a total flow rate of 100 μL/min into the mass spectrometer.
The RP-separation was performed by a binary gradient system, using water and methanol. The organic modifier, however, decreases the activity of enzymes. For this reason, a makeup flow was added after the LC-column (see FIG. 5) to reduce the concentration of methanol. […] This flow was used as the carrier solvent that was pumped into the continuous-flow system. […]

Take `CC(C)C[C@H](NC(=O)[C@H]1O[C@@H]1C(=O)O)C(=O)NCCCCN=C(N)N` (relative stereo) [E64, trans-epoxysuccinyl-L-leucylamido-(4-guanidino)butane]: the “injected concentration giving more or less the same area of negative peaks” value in assay [1] was 0.50 µM. Moreover, the “negative peak in product mass trace after LC separation” value in assay [2] was “caused by inhibition”.
